For test [1], the target named is T1, FgPT1 (Fusarium globosum, UniProt A0A8H5XPW9).
T1 construct: gene FGLOB1_12591; full length, 426 residues, N-terminal His6 tag (pET-28a, synthetic gene), E. coli BL21(DE3), Ni-NTA
The experiment in a line: HPLC product formation, Michaelis-Menten fit. It counts as biochemical. The note with it: 1 mM DMAPP, 1 mM BaCl2, 100 mM Tris-HCl pH 7.5, 37 °C, apparent. The text has this: HPLC product formation, Michaelis-Menten fit on FgPT1

The target in test [2] is T1, FgPT1. The experiment in a line: HPLC / LC-MS product detection. The settings on record: prenyl donor; with flavanone acceptor, metal ion (Ba2+ best), Tris-HCl pH 7.5, 37 °C. The test is classed as biochemical.

SMILES strings stand for the structures.

T1 sequence (A0A8H5XPW9 entry or part of it): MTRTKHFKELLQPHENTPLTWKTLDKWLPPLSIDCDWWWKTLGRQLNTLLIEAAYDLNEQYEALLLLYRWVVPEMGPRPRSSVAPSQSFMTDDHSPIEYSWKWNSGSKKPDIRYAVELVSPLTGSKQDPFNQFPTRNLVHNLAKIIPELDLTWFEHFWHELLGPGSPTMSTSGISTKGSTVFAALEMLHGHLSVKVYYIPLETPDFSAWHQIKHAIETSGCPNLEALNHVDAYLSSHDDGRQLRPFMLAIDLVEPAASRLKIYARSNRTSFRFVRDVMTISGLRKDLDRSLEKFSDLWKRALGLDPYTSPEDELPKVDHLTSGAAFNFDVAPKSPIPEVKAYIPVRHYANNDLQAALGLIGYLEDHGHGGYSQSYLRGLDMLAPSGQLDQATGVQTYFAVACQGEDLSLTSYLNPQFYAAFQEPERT

Turning to `O=C1CC(c2ccccc2)Oc2cc(O)cc(O)c21` (racemic) [compound 5, Rac-pinocembrin], in test [1] (racemic substrate), the “KM (mM)” value was 0.14 ± (0.037) mM.
For the compound `CC(C)=CCOP(=O)(O)OP(=O)(O)O` [DMAPP], the “HPLC / LC-MS product detection” value in test [2] is given as “using DMAPP as the prenyl donor revealed catalytic activity exclusively toward six flavanones”.
For `O=C1C[C@@H](c2ccc(O)cc2)Oc2cc(O)cc(O)c21` [compound 1, Naringenin], the “KM (mM)” value in test [1] is 0.26 ± (0.077) mM.
Still for that read-out and setting: next, `COc1ccc([C@@H]2CC(=O)c3c(O)cc(O)cc3O2)cc1O` [compound 2, Hesperetin]: 0.94 ± (0.075) mM; `O=C1C[C@@H](c2ccc(O)c(O)c2)Oc2cc(O)cc(O)c21` [compound 3, Eriodictyol]: 0.23 ± (0.026) mM.
In the case of `O=C1C[C@@H](c2ccc(O)cc2)Oc2cc(O)ccc21` [compound 4, Liquiritigenin], the “KM (mM)” value in test [1] was 0.93 ± (0.161) mM.
Still for that read-out and setting: next, `O=C1c2c(O)cc(O)cc2OCC1c1ccc(O)cc1` (stereo not shown) [compound 6, Dihydrogenistein]: 0.14 ± (0.026) mM.

For the origin of these results see publication PMC11990136, “Prenylation of Flavanones by an Aromatic Prenyltransferase from Fusarium globosum” (Molecules, 2025).
